Laboratory results: ChEMBL document CHEMBL3885861, “Open TG-GATES”

Organism: Rattus norvegicus
Test: Open TG-GATES - Regimen: Single
Assay type: toxicity, organism-based, Sprague-Dawley
Set-up: regimen Single, gender Male, age 6 weeks
Settings: in vivo, po, 0 mg/kg, route gavage, dose level Control; for APTT / Bas / Eos / Fbg / Hb / Ht / Lym / MCH / MCHC / MCV / Mono / Neu / PT / Plat / RBC / Ret / WBC: tissue Blood; for KIDNEY_L / KIDNEY_R / KIDNEY_TOTAL: tissue Kidney; for LIVER: tissue Liver; for A/G / ALP / ALT / AST / BUN / CRE / Ca / Cl / DBIL / GLC / IP / K / LDH / Na / PL / RALB / TBIL / TC / TG / TP / gamma-GTP: tissue Plasma

## COc1ccc(O)c(C(C)(C)C)c1.COc1ccc(O)cc1C(C)(C)C [BUTYLATED HYDROXYANISOLE]
3 h
  TERMINAL_BW: 208.5 g
  APTT: 13.3 s
  Bas: 0.2%
  Eos: 0.7%
  Fbg: 265.2 mg/dL
  Hb: 13.1 g/dL
  Ht: 38.4%
  Lym: 74%
  MCH: 21.2 pg
  MCHC: 34%
  MCV: 62.4 fL
  Mono: 3%
  Neu: 21.1%
  PT: 11.5 s
  Plat: 132.5 x10_4/uL
  RBC: 616.8 x10_4/ul
  Ret: 7.8%
  WBC: 93.2 x10_2/uL
  KIDNEY_L: 0.9 g
  KIDNEY_R: 0.8 g
  KIDNEY_TOTAL: 1.7 g
  LIVER: 9 g
  A/G: 0.8
  ALP: 1750 IU/L
  ALT: 41.4 IU/L
  AST: 76.4 IU/L
  BUN: 10.6 mg/dL
  CRE: 0.2 mg/dL
  Ca: 11.2 mg/dL
  Cl: 106.4 meq/L
  DBIL: 0.03 mg/dL
  GLC: 171.8 mg/dL
  IP: 8.9 mg/dL
  K: 4.4 meq/L
  LDH: 72.2 IU/L
  Na: 141 meq/L
  PL: 153.8 mg/dL
  RALB: 2.6 g/dL
  TBIL: 0.076 mg/dL
  TC: 80.8 mg/dL
  TG: 84.6 mg/dL
  TP: 5.6 g/dL
  gamma-GTP: 1.2 IU/L
6 h
  TERMINAL_BW: 202.6 g
  APTT: 16.8 s
  Bas: 0.2%
  Eos: 0.7%
  Fbg: 263 mg/dL
  Hb: 13.3 g/dL
  Ht: 39%
  Lym: 75.4%
  MCH: 21.3 pg
  MCHC: 34.2%
  MCV: 62.2 fL
  Mono: 2%
  Neu: 20.9%
  PT: 12.6 s
  Plat: 145.4 x10_4/uL
  RBC: 626.6 x10_4/ul
  Ret: 7.6%
  WBC: 97.7 x10_2/uL
  KIDNEY_L: 0.9 g
  KIDNEY_R: 0.9 g
  KIDNEY_TOTAL: 1.8 g
  LIVER: 8.1 g
  A/G: 0.8
  ALP: 1507 IU/L
  ALT: 33.8 IU/L
  AST: 67.8 IU/L
  BUN: 7.2 mg/dL
  CRE: 0.2 mg/dL
  Ca: 10.9 mg/dL
  Cl: 109 meq/L
  DBIL: 0.026 mg/dL
  GLC: 179 mg/dL
  IP: 10 mg/dL
  K: 4.1 meq/L
  LDH: 54.8 IU/L
  Na: 142.6 meq/L
  PL: 127.8 mg/dL
  RALB: 2.6 g/dL
  TBIL: 0.074 mg/dL
  TC: 73.8 mg/dL
  TG: 58.2 mg/dL
  TP: 5.7 g/dL
  gamma-GTP: 1.2 IU/L
9 h
  TERMINAL_BW: 203.6 g
  APTT: 15.7 s
  Bas: 0.2%
  Eos: 0.8%
  Fbg: 263 mg/dL
  Hb: 12.9 g/dL
  Ht: 37.6%
  Lym: 74.4%
  MCH: 21.1 pg
  MCHC: 34.2%
  MCV: 61.5 fL
  Mono: 2.8%
  Neu: 21%
  PT: 12.8 s
  Plat: 142.3 x10_4/uL
  RBC: 612 x10_4/ul
  Ret: 8.4%
  WBC: 68.2 x10_2/uL
  KIDNEY_L: 0.9 g
  KIDNEY_R: 0.8 g
  KIDNEY_TOTAL: 1.7 g
  LIVER: 7.6 g
  A/G: 0.9
  ALP: 1620.2 IU/L
  ALT: 30.8 IU/L
  AST: 66.6 IU/L
  BUN: 8.8 mg/dL
  CRE: 0.2 mg/dL
  Ca: 10.9 mg/dL
  Cl: 106.2 meq/L
  DBIL: 0.022 mg/dL
  GLC: 177.4 mg/dL
  IP: 10.2 mg/dL
  K: 4.1 meq/L
  LDH: 61.6 IU/L
  Na: 141.8 meq/L
  PL: 128.2 mg/dL
  RALB: 2.6 g/dL
  TBIL: 0.088 mg/dL
  TC: 76.8 mg/dL
  TG: 39.4 mg/dL
  TP: 5.6 g/dL
  gamma-GTP: 1.2 IU/L
24 h
  TERMINAL_BW: 217.3 g
  APTT: 15.1 s
  Bas: 0.2%
  Eos: 0.7%
  Fbg: 275.6 mg/dL
  Hb: 13 g/dL
  Ht: 38%
  Lym: 77%
  MCH: 20.9 pg
  MCHC: 34.2%
  MCV: 61.2 fL
  Mono: 2.3%
  Neu: 19.1%
  PT: 12.2 s
  Plat: 136.6 x10_4/uL
  RBC: 620.2 x10_4/ul
  Ret: 7%
  WBC: 82.5 x10_2/uL
  KIDNEY_L: 0.9 g
  KIDNEY_R: 0.9 g
  KIDNEY_TOTAL: 1.8 g
  LIVER: 9.7 g
  A/G: 0.8
  ALP: 1843.2 IU/L
  ALT: 40 IU/L
  AST: 70.8 IU/L
  BUN: 14.6 mg/dL
  CRE: 0.2 mg/dL
  Ca: 11.2 mg/dL
  Cl: 106.4 meq/L
  DBIL: 0.018 mg/dL
  GLC: 173 mg/dL
  IP: 7.7 mg/dL
  K: 4.3 meq/L
  LDH: 63.2 IU/L
  Na: 143.6 meq/L
  PL: 136.6 mg/dL
  RALB: 2.6 g/dL
  TBIL: 0.066 mg/dL
  TC: 77.6 mg/dL
  TG: 75.8 mg/dL
  TP: 5.7 g/dL
  gamma-GTP: 1 IU/L
